In ChEMBL document CHEMBL1201862, “PubChem BioAssay data set” (2004):
The source made the active and inactive calls.

System: Streptococcus sp. 'group A'
Experiment: growth inhibition of control SK(-) GAS strain, dose response, counter-screen for streptokinase expression inhibitor project, luminescence, kanamycin, BacTiterGlo, confirmation (AID 1900)
Assay type: functional, organism-based
Conditions: not given

Compound | EC50
CCOC(=O)C1=C(N)c2ccccc2CC1C1CCCC1 (stereo unspecified) | 7.81 µM (active)
Cc1cc(Oc2ccc(Cl)cc2)nc(-c2ccccc2O)n1 | > 150 µM (not active)
CCCCCCC(=O)NN/C=C1/C(=O)NC(=S)N(CCCC)C1=O | 5.51 µM (active)
CN(C(=O)Cc1c(C(=O)O)n(C)c2ccccc12)c1ccc(F)cc1 | > 150 µM (not active)
COc1ccc(NC(=O)C(OC(=O)c2cnc(C)cn2)c2ccccc2)cc1Cl (stereo unspecified) | 4.66 µM (active)
O=S(=O)(NC(=NCc1ccccc1)c1ccccc1)c1ccc(Br)cc1 | > 150 µM (not active)
COc1cccc(-c2cc(C(=O)NCC3CCCO3)c3cc(Br)cc(C)c3n2)c1 (stereo unspecified) | > 150 µM (not active)

Molecular target: Cytochrome P450 2C9 (Homo sapiens, UniProt P11712)
Conditions: not given

Cytochrome P450 2C9, sequence (P11712 whole entry): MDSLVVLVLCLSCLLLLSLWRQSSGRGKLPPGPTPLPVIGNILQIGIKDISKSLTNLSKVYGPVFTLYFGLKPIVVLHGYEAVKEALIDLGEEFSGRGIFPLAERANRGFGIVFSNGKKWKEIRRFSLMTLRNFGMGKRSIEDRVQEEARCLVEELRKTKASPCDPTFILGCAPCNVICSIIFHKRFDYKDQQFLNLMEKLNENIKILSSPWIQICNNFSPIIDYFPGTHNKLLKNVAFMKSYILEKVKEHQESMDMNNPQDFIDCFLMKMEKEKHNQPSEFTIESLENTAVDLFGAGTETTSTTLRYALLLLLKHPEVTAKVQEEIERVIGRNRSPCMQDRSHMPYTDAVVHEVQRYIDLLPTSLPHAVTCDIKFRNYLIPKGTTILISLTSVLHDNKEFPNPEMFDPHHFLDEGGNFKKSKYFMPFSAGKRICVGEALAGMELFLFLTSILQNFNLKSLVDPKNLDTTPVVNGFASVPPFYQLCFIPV

Compound | AC50
Fc1ccc(CCNCc2ccc(Cl)c(Cl)c2)cc1 | 17.8 µM (inconclusive)
CCOC(=O)NC1(C(F)(F)F)C(=O)N(Cc2ccccc2)C2=C1C(=O)CC(C)(C)C2 (stereo unspecified) | 28.2 µM (inconclusive)
CCOC(=O)C(C)n1cnc2c(oc3ccccc32)c1=O (stereo unspecified) | 28.2 µM (inconclusive)
COC(=O)[C@@]1(Cc2ccc(OC)cc2)[C@H]2c3cc(C(=O)N4CCCC4)n(CCN4CCOCC4)c3C[C@H]2CN1C(=O)c1ccccc1 | 31.6 µM (inconclusive)
CC(C)(C)[Si](C)(C)c1c2c(nc3ccc(OCc4ccccc4)cc13)-c1cccc(=O)n1C2 | 20 µM (inconclusive)
Cc1ncsc1CCCl [CLOMETHIAZOLE] | 2.51 µM (inconclusive)
CC[C@H](C(=O)c1cccs1)C(O)(C(F)(F)F)C(F)(F)F | 7.94 µM (inconclusive)
Cn1cccc1C(=O)N1CCC2(CCCN(c3ccncc3)C2)CC1 | 25.1 µM (inconclusive)

Molecular target: T1, Cytochrome P450 1A2 (Homo sapiens, UniProt P05177);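 further: PubChem cytochrome P450 panel assay, CYP1A2 panel member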
T1 sequence (P05177 whole entry): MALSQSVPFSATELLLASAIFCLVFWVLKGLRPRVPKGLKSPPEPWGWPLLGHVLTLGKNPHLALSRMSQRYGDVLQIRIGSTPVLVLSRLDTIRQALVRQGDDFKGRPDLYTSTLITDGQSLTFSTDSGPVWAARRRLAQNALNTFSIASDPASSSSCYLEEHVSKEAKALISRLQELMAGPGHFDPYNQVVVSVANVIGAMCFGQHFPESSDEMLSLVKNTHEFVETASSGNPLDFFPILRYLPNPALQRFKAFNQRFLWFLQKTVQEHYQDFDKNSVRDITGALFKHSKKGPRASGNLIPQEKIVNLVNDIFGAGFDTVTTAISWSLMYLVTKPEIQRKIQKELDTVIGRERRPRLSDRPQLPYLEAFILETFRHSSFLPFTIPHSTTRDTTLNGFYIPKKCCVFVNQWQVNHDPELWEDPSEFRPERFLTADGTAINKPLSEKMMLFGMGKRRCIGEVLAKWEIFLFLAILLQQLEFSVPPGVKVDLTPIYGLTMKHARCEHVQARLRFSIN
Conditions: not given

Compound | AC50
O=C(Nc1cc2c(oc1=O)CCCC2=O)c1ccc(Cl)cc1 | 14.1 µM (inconclusive)
CC(C)Oc1cc(-n2c(=S)[nH]c3ccccc3c2=O)c(Cl)cc1Cl | 12.6 µM (inconclusive)

System: not listed separately
Experiment: inhibitors of intracellular T. cruzi replication, confirmation, NIH3T3 host cells, beta-gal luminescence (AID 2044);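 further: intracellular parasites grown in NIH/3T3 mouse fibroblasts as host cells; luminescent beta-galactosidase reporter signal from transgenic T. cruzi replicating inside host cells; inhibitors lower the luminescence signal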
Assay type: functional, cell-based
Conditions: not given

Compound | EC50
Fc1ccc(CCNCc2ccc(Cl)c(Cl)c2)cc1 | 0.122 µM (active)

Molecular target: Paired box protein Pax-8 (Homo sapiens, UniProt Q06710)
Experiment: inhibitors of PAX8-driven TPO luciferase reporter, dose response, RMG-I cells, cherry-pick (AID 687027);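 further: luciferase reporter driven by Pax8 target thyroperoxidase promoter measured by SteadyGlo luminescence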
Assay type: functional, cell-based
Conditions: not given

Paired box protein Pax-8, sequence (Q06710 whole entry): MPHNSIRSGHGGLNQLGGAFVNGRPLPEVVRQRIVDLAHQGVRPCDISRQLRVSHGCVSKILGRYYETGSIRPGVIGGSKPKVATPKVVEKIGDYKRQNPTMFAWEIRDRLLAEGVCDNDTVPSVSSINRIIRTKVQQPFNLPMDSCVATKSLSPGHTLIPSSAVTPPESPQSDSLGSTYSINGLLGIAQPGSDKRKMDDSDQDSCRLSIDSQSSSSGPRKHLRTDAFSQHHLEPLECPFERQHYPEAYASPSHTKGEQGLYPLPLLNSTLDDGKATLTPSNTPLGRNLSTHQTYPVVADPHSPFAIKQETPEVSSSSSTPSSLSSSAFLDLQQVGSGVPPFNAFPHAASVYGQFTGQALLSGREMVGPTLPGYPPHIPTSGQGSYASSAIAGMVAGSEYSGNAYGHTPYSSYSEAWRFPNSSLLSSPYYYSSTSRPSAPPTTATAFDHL

Compound | AC50
Cc1ccc(S(=O)(=O)Nc2ccc3c(c2)C(=O)N([C@@H](C)CO)C[C@@H](C)[C@@H](CN(C)S(=O)(=O)c2ccc(Cl)cc2)OCCCC[C@@H](C)O3)cc1 | 10.4 µM (active)
O=C(CCc1ccc(S(=O)(=O)NCc2ccccc2)cc1)NCc1cccnc1 | 41.5 µM (active)
Cc1ccc(C)c(CSC2=NCCN2C(=O)Cc2ccc([N+](=O)[O-])cc2)c1 | 26.3 µM (active)
C[C@H](CO)N1C[C@H](C)[C@H](CN(C)Cc2ccc(Cl)c(Cl)c2)OCCCC[C@H](C)Oc2ccc(NC(=O)NC3CCCCC3)cc2C1=O | 11.7 µM (active)
N#Cc1nc(NCC(F)F)nc(Nc2cc(F)cc(F)c2)n1 | 5.01 µM (active)
COc1cc(-c2cnc3c(NC=O)cc(-c4ccccc4)cn23)cc(OC)c1OC | 2.79 µM (active)
Oc1ccc(C[C@H]2CNC(=S)N2CC2CCCN2C[C@H](Cc2ccc(O)cc2)N2C[C@H](Cc3ccccc3)N(CC3CCCCCC3)C2=S)cc1 (stereo partly specified) | 9.86 µM (active)

Molecular target: T2, Streptokinase A (Streptococcus pyogenes serotype M1, UniProt P10520)
T2 sequence (P10520 whole entry): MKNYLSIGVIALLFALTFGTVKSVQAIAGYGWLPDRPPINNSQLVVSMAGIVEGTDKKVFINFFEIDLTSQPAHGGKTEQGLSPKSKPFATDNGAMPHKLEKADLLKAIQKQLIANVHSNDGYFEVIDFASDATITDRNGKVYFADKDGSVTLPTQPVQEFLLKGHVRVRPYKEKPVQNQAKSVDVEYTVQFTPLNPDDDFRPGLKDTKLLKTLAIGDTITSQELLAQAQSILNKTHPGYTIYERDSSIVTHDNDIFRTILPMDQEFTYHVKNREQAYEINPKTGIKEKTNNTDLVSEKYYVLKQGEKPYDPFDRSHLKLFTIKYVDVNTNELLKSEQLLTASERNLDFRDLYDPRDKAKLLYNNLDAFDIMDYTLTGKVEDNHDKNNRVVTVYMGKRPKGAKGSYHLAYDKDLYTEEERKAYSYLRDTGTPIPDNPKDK
Experiment: S. pyogenes streptokinase expression inhibitors, potency, dose response, plasminogen activation absorbance, OD405 (AID 1914);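 further: secreted streptokinase activity via plasminogen activation per viability signal from cell pellet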
Assay type: functional, Streptococcus pyogenes M1 GAS
Conditions: not given

Compound | EC50
CCOC(=O)C1=C(N)c2ccccc2CC1C1CCCC1 (stereo unspecified) | 19.3 µM (active)
Cc1cc(Oc2ccc(Cl)cc2)nc(-c2ccccc2O)n1 | 14.6 µM (active)
CCCCCCC(=O)NN/C=C1/C(=O)NC(=S)N(CCCC)C1=O | > 150 µM (not active)
CN(C(=O)Cc1c(C(=O)O)n(C)c2ccccc12)c1ccc(F)cc1 | > 150 µM (not active)
COc1ccc(NC(=O)C(OC(=O)c2cnc(C)cn2)c2ccccc2)cc1Cl (stereo unspecified) | > 150 µM (not active)
O=S(=O)(NC(=NCc1ccccc1)c1ccccc1)c1ccc(Br)cc1 | 33.4 µM (active)
COc1cccc(-c2cc(C(=O)NCC3CCCO3)c3cc(Br)cc(C)c3n2)c1 (stereo unspecified) | > 150 µM (not active)

System: Streptococcus
Experiment: Group A Streptococcus viability loss, dose response, counter-screen for streptokinase expression inhibitor project, luminescence, BacTiterGlo (AID 1915);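 further: potency for reduction of bacterial viability or growth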
Assay type: functional, organism-based
Conditions: not given

Compound | EC50
CCOC(=O)C1=C(N)c2ccccc2CC1C1CCCC1 (stereo unspecified) | 11.9 µM (active)
Cc1cc(Oc2ccc(Cl)cc2)nc(-c2ccccc2O)n1 | > 150 µM (not active)
CCCCCCC(=O)NN/C=C1/C(=O)NC(=S)N(CCCC)C1=O | 49.3 µM (active)
CN(C(=O)Cc1c(C(=O)O)n(C)c2ccccc12)c1ccc(F)cc1 | > 150 µM (not active)
COc1ccc(NC(=O)C(OC(=O)c2cnc(C)cn2)c2ccccc2)cc1Cl (stereo unspecified) | > 150 µM (not active)
O=S(=O)(NC(=NCc1ccccc1)c1ccccc1)c1ccc(Br)cc1 | > 150 µM (not active)
COc1cccc(-c2cc(C(=O)NCC3CCCO3)c3cc(Br)cc(C)c3n2)c1 (stereo unspecified) | > 150 µM (not active)

Molecular target: Cytochrome P450 2C19 (Homo sapiens, UniProt P33261)
Experiment: Cytochrome panel assay with activity outcomes. Panel member name: p450-cyp2c19 Compounds with AC50 equal or less than 10 uM are considered active
Assay type: functional
Conditions: read-out: AC50

Cytochrome P450 2C19, sequence (P33261 whole entry): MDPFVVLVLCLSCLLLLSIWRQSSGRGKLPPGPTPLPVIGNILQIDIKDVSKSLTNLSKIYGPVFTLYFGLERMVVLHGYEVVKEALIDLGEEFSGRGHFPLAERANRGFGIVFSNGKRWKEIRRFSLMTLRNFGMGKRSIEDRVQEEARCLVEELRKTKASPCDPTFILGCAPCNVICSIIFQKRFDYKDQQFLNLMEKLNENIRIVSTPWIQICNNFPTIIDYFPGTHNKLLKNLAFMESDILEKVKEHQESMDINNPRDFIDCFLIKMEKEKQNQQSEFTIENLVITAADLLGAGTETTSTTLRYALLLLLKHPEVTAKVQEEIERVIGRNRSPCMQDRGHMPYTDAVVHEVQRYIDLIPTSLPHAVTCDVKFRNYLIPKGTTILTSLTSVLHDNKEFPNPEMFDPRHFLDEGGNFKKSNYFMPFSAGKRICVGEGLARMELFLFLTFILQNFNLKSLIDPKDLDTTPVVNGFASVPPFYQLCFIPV

Compound | AC50
CCOC(=O)C(C)n1cnc2c(oc3ccccc32)c1=O (stereo unspecified) | 31.6 µM (inconclusive)
COC(=O)[C@@]1(Cc2ccc(OC)cc2)[C@H]2c3cc(C(=O)N4CCCC4)n(CCN4CCOCC4)c3C[C@H]2CN1C(=O)c1ccccc1 | 31.6 µM (inconclusive)
CC[C@H](C(=O)c1cccs1)C(O)(C(F)(F)F)C(F)(F)F | 2 µM (inconclusive)

Molecular target: T3, Heat shock factor protein 1 (Mus musculus, UniProt P38532)
T3 sequence (P38532 whole entry): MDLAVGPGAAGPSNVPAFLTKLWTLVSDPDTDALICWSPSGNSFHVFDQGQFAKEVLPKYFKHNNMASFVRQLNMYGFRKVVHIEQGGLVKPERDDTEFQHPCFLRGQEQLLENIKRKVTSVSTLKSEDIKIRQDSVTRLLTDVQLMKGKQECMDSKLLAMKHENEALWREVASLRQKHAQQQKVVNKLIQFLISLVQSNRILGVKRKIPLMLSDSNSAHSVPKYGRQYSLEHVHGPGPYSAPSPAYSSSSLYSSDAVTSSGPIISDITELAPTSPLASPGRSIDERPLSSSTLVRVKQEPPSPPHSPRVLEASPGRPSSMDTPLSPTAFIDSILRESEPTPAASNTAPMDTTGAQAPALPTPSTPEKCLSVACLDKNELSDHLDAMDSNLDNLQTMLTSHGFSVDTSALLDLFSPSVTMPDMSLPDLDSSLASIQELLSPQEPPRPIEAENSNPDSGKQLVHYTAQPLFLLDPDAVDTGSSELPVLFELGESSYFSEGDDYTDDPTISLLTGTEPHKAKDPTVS
Experiment: HSF1 potentiators in luciferase reporter cells, confirmation, cell-based, NIH3T3, luminescence, dose retest (AID 435004);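 further: stress induced by proteasome inhibitor MG132 added 30 min after compound; luciferase reporter driven by HSF1 response element in NIH3T3 cells; actives raise luminescence as potentiators of the MG132 stress response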
Assay type: functional
Conditions: not given

Compound | EC50
Cc1cc(C)cc(OCC(=O)O/N=C(\N)Cc2ccc([N+](=O)[O-])cc2)c1 | > 260 µM (inactive)
Cc1nc(SCCOc2ccc(F)cc2)c2ccccc2n1 | 38.7 µM (active)
CCOC(=O)/C(=N/Nc1ccc(Cl)cc1)Sc1nnnn1-c1ccc(C)cc1 | > 260 µM (inactive)
CSCCC(NS(=O)(=O)c1cccc(C(F)(F)F)c1)C(=O)N(C)CCOc1ccc(Cl)cc1 (stereo unspecified) | > 260 µM (inactive)
O=C(COC(=O)C1CCN(S(=O)(=O)c2cccc3cccnc23)CC1)c1ccc([N+](=O)[O-])cc1 | > 260 µM (inactive)
C/C=C1\COC(C(=O)NCc2ccccc2)(C(F)(F)F)C=C1C=C(C)C (stereo unspecified) | > 260 µM (inactive)
O=C1C2CC=CCC2C(=O)N1Cc1nnc(-c2ccc(Cl)cc2)o1 (stereo unspecified) | 39.1 µM (active)
Clc1ccc(OCCn2c(-c3ccco3)nc3ccccc32)cc1 | 12 µM (active)
OC[C@@H](O)C1OC2N=C(S)OC2C1O (stereo partly specified) | > 260 µM (inactive)
Cc1ccc(NC2=NC(N)=NC3(CCCC3)N2)c(C)c1 | > 260 µM (inactive)
CCOC(=O)c1c(C)[nH]c(C)c1S(=O)(=O)N1CCN(c2ccc(F)cc2)CC1 | > 260 µM (inactive)
C=C(C)Cn1c(SCC(=O)O)nnc1-c1ccc(OC)cc1 | > 260 µM (inactive)
COc1ccc(NS(=O)(=O)c2cccc(C(=O)N(C)Cc3ccc(SC)cc3)c2)cc1 | > 260 µM (inactive)
COc1cccc(CNC(=O)Cn2nc(C)c([N+](=O)[O-])c2C)c1 | > 260 µM (inactive)

System: not listed separately
Experiment: cytotoxicity toward NIH3T3 fibroblasts, dose response, counter-screen, cell-based, ATP luminescence, mouse fibroblasts (AID 2010);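 further: cells exposed to compound for about 90 hours before reading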
Assay type: functional
Conditions: not given

Compound | EC50
Fc1ccc(CCNCc2ccc(Cl)c(Cl)c2)cc1 | > 30 µM (not active)

System: not listed separately
Experiment: HEp-2 cell cytotoxicity, dose response, cytotoxicity control for RSV inhibitor project, HTS (AID 2410)
Assay type: functional
Conditions: human respiratory syncytial virus

Compound | CC50
O=[N+]([O-])c1ccc(NC(S)=NC(=NCS(=O)(=O)c2ccccc2)c2ccccc2)cc1 | 11.1 µM (active)
CCN=C(S)NNC(=O)c1csc2c1CCCC2 | 17.9 µM (active)
Cc1ccc(C2CC(C(F)F)n3ncc(C(=O)Nc4c(C)nn(Cc5c(F)cccc5Cl)c4C)c3N2)cc1 (stereo unspecified) | 19.9 µM (active)
CC(C)NC(=O)c1onc(CSc2cccc3ccccc23)c1C(=O)O | 12.6 µM (active)
CC(=O)CSc1ncnc2sc3c(c12)CCC3 | 32.7 µM (active)
COc1ccc(/C=C(\C#N)C(=O)OCC(=O)Nc2ccc(-c3nc4ccc(C)cc4s3)cc2)cc1 | 18.6 µM (active)
Cc1ccc([N+](=O)[O-])cc1NC(=O)CN(C)CCOc1ccccc1 | 24.3 µM (active)
CC(C)(C)c1ccc(C(=O)Nc2ccc(S(N)(=O)=O)cc2)cc1 | 20.1 µM (active)
COc1ccc2nc(-c3ccccc3)cc(OC)c2c1 | > 50 µM (active)
